Columns and labels:
[1] = molecular target: PIK3CB (Human) (UniProt P42338); assay: Enzyme Assay
[2] = molecular target: PIK3CG (human) (UniProt P48736); assay: Enzyme Assay
[3] = molecular target: PIK3CA (human) (UniProt P42336); assay: Enzyme Assay
[4] = molecular target: PIK3CD (Human) (UniProt O00329); assay: Enzyme Assay
[5] = molecular target: PIK3CA (human) (UniProt P42336); assay: Cell-Based Assay

Sequence of PIK3CG (human) (P48736 whole entry, looked up): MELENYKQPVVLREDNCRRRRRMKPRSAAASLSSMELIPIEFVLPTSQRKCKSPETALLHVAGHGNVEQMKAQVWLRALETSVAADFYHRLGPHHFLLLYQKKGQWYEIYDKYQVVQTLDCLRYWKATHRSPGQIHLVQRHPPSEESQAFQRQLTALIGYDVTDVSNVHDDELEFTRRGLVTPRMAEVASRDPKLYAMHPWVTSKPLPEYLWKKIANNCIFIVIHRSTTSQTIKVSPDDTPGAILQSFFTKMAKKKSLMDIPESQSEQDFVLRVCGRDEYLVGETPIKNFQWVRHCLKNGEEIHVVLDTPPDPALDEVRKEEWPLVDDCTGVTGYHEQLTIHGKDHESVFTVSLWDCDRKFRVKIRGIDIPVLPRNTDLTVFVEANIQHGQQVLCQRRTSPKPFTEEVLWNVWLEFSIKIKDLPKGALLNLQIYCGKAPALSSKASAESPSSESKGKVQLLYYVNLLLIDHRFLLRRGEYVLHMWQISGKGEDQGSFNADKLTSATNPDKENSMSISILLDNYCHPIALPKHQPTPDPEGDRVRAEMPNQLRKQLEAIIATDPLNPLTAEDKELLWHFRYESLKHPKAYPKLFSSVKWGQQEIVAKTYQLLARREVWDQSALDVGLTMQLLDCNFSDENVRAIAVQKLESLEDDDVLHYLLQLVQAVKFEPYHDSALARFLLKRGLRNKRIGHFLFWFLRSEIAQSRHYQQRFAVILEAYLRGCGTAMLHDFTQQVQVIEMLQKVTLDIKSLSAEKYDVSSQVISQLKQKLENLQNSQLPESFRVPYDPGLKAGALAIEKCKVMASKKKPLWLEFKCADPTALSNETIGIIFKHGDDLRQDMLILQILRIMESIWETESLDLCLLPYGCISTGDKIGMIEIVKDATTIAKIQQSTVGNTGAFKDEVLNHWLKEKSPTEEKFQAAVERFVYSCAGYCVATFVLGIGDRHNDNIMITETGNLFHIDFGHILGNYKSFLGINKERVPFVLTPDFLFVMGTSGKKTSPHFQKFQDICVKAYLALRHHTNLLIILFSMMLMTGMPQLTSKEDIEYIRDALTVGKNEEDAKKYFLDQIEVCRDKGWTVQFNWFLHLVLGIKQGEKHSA
Sequence of PIK3CD (Human) (O00329 whole entry, looked up): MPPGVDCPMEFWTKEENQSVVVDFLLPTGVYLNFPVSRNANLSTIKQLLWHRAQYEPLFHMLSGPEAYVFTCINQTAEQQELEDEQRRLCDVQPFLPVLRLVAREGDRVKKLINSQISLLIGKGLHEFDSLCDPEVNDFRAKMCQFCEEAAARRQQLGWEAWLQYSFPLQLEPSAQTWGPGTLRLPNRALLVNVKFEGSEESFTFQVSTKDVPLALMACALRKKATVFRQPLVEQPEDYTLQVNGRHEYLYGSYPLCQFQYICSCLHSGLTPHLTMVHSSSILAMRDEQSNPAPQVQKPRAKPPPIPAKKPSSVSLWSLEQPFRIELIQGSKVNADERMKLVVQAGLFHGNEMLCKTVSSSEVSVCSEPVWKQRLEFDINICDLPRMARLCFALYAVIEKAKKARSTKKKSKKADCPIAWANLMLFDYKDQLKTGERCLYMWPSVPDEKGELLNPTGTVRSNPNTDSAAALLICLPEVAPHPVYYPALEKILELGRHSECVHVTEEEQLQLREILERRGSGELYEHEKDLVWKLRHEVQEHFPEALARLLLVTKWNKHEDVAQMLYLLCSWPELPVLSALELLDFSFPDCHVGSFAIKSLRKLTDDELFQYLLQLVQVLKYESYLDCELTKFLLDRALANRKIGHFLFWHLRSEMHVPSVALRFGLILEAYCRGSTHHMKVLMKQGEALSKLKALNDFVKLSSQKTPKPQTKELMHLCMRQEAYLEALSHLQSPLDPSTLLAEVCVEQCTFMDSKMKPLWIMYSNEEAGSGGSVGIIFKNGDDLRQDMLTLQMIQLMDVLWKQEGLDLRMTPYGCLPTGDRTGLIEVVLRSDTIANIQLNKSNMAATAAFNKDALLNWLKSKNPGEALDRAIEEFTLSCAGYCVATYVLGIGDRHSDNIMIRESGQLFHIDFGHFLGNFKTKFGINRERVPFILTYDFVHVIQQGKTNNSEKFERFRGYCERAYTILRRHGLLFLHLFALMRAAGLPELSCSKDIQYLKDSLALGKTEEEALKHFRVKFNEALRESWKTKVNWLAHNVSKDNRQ
Sequence of PIK3CB (Human) (P42338 whole entry, looked up): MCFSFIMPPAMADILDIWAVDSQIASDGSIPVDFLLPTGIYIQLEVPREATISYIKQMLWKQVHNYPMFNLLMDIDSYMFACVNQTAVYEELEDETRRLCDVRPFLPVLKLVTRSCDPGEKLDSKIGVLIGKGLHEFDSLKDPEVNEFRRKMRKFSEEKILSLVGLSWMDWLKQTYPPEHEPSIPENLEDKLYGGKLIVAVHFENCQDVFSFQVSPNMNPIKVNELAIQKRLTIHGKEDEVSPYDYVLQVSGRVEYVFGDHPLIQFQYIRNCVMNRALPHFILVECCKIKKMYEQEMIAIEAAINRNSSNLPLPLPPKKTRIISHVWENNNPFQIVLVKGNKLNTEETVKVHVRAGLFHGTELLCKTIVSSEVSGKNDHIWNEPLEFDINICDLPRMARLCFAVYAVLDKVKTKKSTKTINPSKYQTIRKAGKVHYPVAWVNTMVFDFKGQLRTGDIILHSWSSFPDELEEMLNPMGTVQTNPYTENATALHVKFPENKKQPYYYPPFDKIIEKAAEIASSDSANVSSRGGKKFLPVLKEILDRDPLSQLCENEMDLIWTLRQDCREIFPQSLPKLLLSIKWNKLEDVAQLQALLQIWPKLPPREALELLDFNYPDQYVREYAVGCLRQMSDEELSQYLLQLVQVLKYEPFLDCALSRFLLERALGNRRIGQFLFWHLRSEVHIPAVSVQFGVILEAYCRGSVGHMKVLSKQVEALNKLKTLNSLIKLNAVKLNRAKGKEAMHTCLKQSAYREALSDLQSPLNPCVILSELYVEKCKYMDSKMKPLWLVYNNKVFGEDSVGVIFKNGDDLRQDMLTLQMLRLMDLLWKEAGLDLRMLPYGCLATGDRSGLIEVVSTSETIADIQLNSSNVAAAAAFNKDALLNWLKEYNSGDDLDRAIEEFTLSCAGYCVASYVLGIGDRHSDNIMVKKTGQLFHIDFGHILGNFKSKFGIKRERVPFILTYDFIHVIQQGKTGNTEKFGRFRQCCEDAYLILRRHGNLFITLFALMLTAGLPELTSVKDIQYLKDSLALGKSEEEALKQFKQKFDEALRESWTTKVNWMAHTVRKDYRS
Sequence of PIK3CA (human) (P42336 whole entry, looked up): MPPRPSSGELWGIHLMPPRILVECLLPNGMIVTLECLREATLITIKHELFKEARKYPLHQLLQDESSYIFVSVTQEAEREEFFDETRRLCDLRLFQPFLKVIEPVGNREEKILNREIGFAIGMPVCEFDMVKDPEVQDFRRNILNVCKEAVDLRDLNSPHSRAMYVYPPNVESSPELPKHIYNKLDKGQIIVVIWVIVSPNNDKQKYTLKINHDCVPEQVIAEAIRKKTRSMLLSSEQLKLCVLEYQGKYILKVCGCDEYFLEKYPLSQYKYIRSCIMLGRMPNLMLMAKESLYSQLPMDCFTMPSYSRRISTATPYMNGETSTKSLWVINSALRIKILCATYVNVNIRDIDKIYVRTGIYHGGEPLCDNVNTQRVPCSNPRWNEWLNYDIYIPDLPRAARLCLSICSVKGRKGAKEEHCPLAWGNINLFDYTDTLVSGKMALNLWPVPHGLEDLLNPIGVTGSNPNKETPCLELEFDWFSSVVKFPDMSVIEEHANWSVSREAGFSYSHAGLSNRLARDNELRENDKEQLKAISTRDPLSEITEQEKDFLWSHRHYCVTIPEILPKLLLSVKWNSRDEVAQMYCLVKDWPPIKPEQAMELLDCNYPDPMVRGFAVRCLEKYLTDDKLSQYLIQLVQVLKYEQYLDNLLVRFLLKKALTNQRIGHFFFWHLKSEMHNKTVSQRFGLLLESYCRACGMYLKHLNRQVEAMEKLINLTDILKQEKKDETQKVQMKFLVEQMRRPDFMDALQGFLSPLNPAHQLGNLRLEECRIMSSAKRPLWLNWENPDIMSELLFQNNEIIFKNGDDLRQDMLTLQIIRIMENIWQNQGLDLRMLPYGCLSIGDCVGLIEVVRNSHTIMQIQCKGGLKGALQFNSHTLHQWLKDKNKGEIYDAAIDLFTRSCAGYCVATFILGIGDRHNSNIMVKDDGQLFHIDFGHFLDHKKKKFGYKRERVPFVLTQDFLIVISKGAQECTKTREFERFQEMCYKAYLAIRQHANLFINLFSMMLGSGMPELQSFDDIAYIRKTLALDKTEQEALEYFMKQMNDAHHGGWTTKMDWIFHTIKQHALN

SMILES | IC50 [1] [µM] | IC50 [2] [µM] | IC50 [3] [µM] | IC50 [4] [µM] | IC50 ([5]; t47d) [µM] | IC50 ([5]; pc3) [µM]
CC(=O)Nc1nc2ccc(-c3ccc4oc(N)nc4c3)cc2s1 | 0.1 to 1 | < 0.1 | < 0.1 | < 0.1 | 0.1 to 1 | 
Nc1nc2ccc(-c3ccc4nccc(-c5ccncc5)c4c3)cc2o1 | < 0.1 | < 0.1 | < 0.1 | < 0.1 |  | < 0.1
NC(=O)[C@H]1CCCN1c1cnc2ccc(-c3ccc4oc(N)nc4c3)cc2n1 | < 0.1 | < 0.1 | < 0.1 | > 10 | 0.1 to 1 | 

Further lines, results first:

IC50 [1] [µM] | IC50 [2] [µM] | IC50 [3] [µM] | IC50 [4] [µM] | IC50 ([5]; t47d) [µM] | IC50 ([5]; pc3) [µM] | SMILES
0.1 to 1 | 0.1 to 1 | < 0.1 | 0.1 to 1 | 0.1 to 1 |  | CN(C)CC(=O)N1CCN(c2cnc3ccc(-c4ccc5oc(N)nc5c4)cc3n2)CC1
0.1 to 1 | > 10 | 0.1 to 1 | > 10 |  |  | CC1CN(C(=O)c2cnc3ccc(-c4ccc5oc(N)nc5c4)cn23)CCN1 (centres undefined)
